How the values were obtained:
[1] = Mortar and pestle trials of Form A under mechanical stress (DSC, XRPD); format: physicochemical; settings: for decrease in the Enthalpy of Fusion (Form A): after 10 min mixing in reaction solvent
Procedure: Mortar and pestle trials were conducted to test the behavior of polymorph Form A under mechanical stress and to test and measure the kinetics of conversion of crystalline Form A to Form B under mechanical stress (possibly via amorphous Form C).

[2] = Form C on ATR-IR sensor in ethanol vapor atmosphere; format: physicochemical; settings: room temperature
From the text: IR spectra (see, e.g. FIG. 2) were acquired by placing a few milligrams of the powder of the sample on a diamond sensor ATR (Attenuated Total Reflection) probe (Dicomp) using a React-IR 4000 system operated at 4 cm^−1 resolution and 128 scans between 650-4000 cm^−1.
Some experiments were executed by creating an ethanol vapor atmosphere around the ATR sensor at room temperature.

decrease in the Enthalpy of Fusion (Form A) [1] | amorphous Form C formed under mechanical stress ([1]; confirmed by powder XRD (FIG. 5)) | polymorph form present ([2]; after two hours) | transformation of polymorph form ([2]; on ATR sensor) | SMILES
About 50% | significant amount of amorphous Form C |  |  | CC(=O)O.Cc1c(-c2ccc(O)cc2)n(Cc2ccc(OCCN3CCCCCC3)cc2)c2ccc(O)cc12 [Sample 8]
 |  | only polymorph Form B was present | transform rapidly into polymorph Form B | Cc1c(-c2ccc(O)cc2)n(Cc2ccc(OCCN3CCCCCC3)cc2)c2ccc(O)cc12 [Form C, 1-[4-(2-azepan-1-yl-ethoxy)-benzyl]-2-(4-hydroxy-phenyl)-3-methyl-1H-indol-5-ol acetic acid]
About 30% |  |  |  | CC(=O)O.Cc1c(-c2ccc(O)cc2)n(Cc2ccc(OCCN3CCCCCC3)cc2)c2ccc(O)cc12 [Sample 7]
